Experimental data reported in BindingDB's records for patent US12383533 (Frost Biologic, 2025).

Molecular target: Tubulin alpha-1A chain (Sus scrofa, UniProt P02550)
Experiment: Not found
From the text: Not found

Sequence of Tubulin alpha-1A chain (P02550 whole entry, looked up): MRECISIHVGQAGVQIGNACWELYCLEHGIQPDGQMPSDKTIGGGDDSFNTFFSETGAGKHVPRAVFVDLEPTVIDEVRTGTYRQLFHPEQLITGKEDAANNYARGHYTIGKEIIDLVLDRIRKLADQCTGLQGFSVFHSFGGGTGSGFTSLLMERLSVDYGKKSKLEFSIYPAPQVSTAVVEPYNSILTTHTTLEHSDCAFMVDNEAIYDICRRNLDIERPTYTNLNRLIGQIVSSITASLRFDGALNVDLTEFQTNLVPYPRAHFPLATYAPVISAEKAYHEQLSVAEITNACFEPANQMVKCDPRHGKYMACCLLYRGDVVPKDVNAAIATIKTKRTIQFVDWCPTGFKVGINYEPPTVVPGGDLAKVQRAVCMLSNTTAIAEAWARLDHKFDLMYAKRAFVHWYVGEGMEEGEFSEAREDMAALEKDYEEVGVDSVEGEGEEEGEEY

IC50: 1.98 µM
SMILES: Cc1ncc(C(=O)Nc2ncc(-c3cccc(NC4CC4)c3)cc2F)cn1 [US12383533, Compound 68]
